Oligonucleotides are written 5' to 3', each unit as a sugar letter and its base; * is a phosphorothioate linkage, no mark a phosphodiester; rarer units and linkages stand in square brackets, end groups in braces. Plain capitals give the bases only. d = 2'-deoxy (DNA); r = 2'-OH (RNA)
target: UFC1; assay: reporter assay of Huesken 2005; conditions: siRNA
Further: test concentration or dose not given here.

Row | Substance | normalised inhibition (eCFP-eYFP dual reporter)
1 | sense rArArArUrCrCrCrUrGrArUrCrUrGrArUrUrCrAdTdT / antisense rUrGrArArUrCrArGrArUrCrArGrGrGrArUrUrUdCdC | 81%
2 | sense rArArCrArArGrArArUrGrCrUrGrArCrArArCrGdTdT / antisense rCrGrUrUrGrUrCrArGrCrArUrUrCrUrUrGrUrUdGdT | 43.3%
3 | sense rArArGrArCrArGrCrArArArGrArUrGrUrArCrAdTdT / antisense rUrGrUrArCrArUrCrUrUrUrGrCrUrGrUrCrUrUdTdC | 113%
4 | sense rArArGrArUrGrUrArCrArGrGrGrGrUrGrGrCrAdTdT / antisense rUrGrCrCrArCrCrCrCrUrGrUrArCrArUrCrUrUdTdG | 62.3%
5 | sense rArArGrGrArArCrUrCrGrGrUrGrGrUrUrUrGrGdTdT / antisense rCrCrArArArCrCrArCrCrGrArGrUrUrCrCrUrUdCdC | 32.2%
6 | sense rArCrArArCrArArGrArArUrGrCrUrGrArCrArAdTdT / antisense rUrUrGrUrCrArGrCrArUrUrCrUrUrGrUrUrGrUdTdC | 86.4%
7 | sense rArCrCrUrCrCrUrGrArArArUrArUrGrArGrUrUdTdT / antisense rArArCrUrCrArUrArUrUrUrCrArGrGrArGrGrUdCdA | 43.5%
8 | sense rArCrCrUrUrUrGrUrGrGrGrCrCrArGrGrArArUdTdT / antisense rArUrUrCrCrUrGrGrCrCrCrArCrArArArGrGrUdTdT | 56.9%
9 | sense rArCrGrGrArUrCrArUrUrUrCrArArArCrCrUrUdTdT / antisense rArArGrGrUrUrUrGrArArArUrGrArUrCrCrGrUdCdA | 106%

target: NOG; assay: reporter assay of Huesken 2005; conditions: siRNA

Row | Substance | normalised inhibition (eCFP-eYFP dual reporter)
10 | sense rCrUrGrGrCrGrGrArGrCrUrGrGrArCrCrArGrCdTdT / antisense rGrCrUrGrGrUrCrCrArGrCrUrCrCrGrCrCrArGdGdT | 58.7%
11 | sense rGrArArCrGrArCrCrUrGrGrGrCrArGrCrCrGrCdTdT / antisense rGrCrGrGrCrUrGrCrCrCrArGrGrUrCrGrUrUrCdCdA | 59.1%
12 | sense rGrArArCrGrArGrArCrGrCrUrGrCrUrGrCrGrCdTdT / antisense rGrCrGrCrArGrCrArGrCrGrUrCrUrCrGrUrUrCdAdG | 74.1%
13 | sense rGrArArGrCrArGrCrGrCrCrUrArArGrCrArArGdTdT / antisense rCrUrUrGrCrUrUrArGrGrCrGrCrUrGrCrUrUrCdTdT | 83%
14 | sense rGrArArGrCrUrGrCrGrGrArGrGrArArGrUrUrAdTdT / antisense rUrArArCrUrUrCrCrUrCrCrGrCrArGrCrUrUrCdTdT | 102%
15 | sense rGrArCrCrArGrCrUrGrCrUrGrCrGrGrCrArGrCdTdT / antisense rGrCrUrGrCrCrGrCrArGrCrArGrCrUrGrGrUrCdCdA | 55.2%
16 | sense rGrArCrCrCrArGrGrCrUrUrCrArUrGrGrCrCrAdTdT / antisense rUrGrGrCrCrArUrGrArArGrCrCrUrGrGrGrUrCdGdT | 82.6%
17 | sense rGrArCrCrUrGrGrGrCrArGrCrCrGrCrUrUrUrUdTdT / antisense rArArArArGrCrGrGrCrUrGrCrCrCrArGrGrUrCdGdT | 77.1%
18 | sense rGrArCrGrCrUrGrCrUrGrCrGrCrUrCrGrCrUrGdTdT / antisense rCrArGrCrGrArGrCrGrCrArGrCrArGrCrGrUrCdTdC | 70.9%
19 | sense rGrArGrCrUrGrGrArCrCrArGrCrUrGrCrUrGrCdTdT / antisense rGrCrArGrCrArGrCrUrGrGrUrCrCrArGrCrUrCdCdG | 71.8%
20 | sense rGrArUrCrArArArGrGrGrCrUrArGrArGrUrUrCdTdT / antisense rGrArArCrUrCrUrArGrCrCrCrUrUrUrGrArUrCdTdC | 78.3%
21 | sense rGrArUrGrUrGrGrCrUrGrUrGrGrUrCrGrCrArGdTdT / antisense rCrUrGrCrGrArCrCrArCrArGrCrCrArCrArUrCdTdG | 81.7%
22 | sense rGrCrArGrCrCrGrCrUrUrUrUrGrGrCrCrGrCrGdTdT / antisense rCrGrCrGrGrCrCrArArArArGrCrGrGrCrUrGrCdCdC | 46.4%
23 | sense rGrCrArGrCrUrGrCrUrUrCrArGrUrArArGrCrGdTdT / antisense rCrGrCrUrUrArCrUrGrArArGrCrArGrCrUrGrCdCdC | 63.1%
24 | sense rGrCrCrCrGrGrCrArCrCrCrArGrCrGrArCrArAdTdT / antisense rUrUrGrUrCrGrCrUrGrGrGrUrGrCrCrGrGrGrCdGdG | 88.4%
25 | sense rGrCrCrGrGrCrGrGrCrCrArGrCrArCrUrArUrCdTdT / antisense rGrArUrArGrUrGrCrUrGrGrCrCrGrCrCrGrGrCdCdG | 82.2%
26 | sense rGrCrCrGrUrCrCrArArGrUrCrCrGrUrGrCrArCdTdT / antisense rGrUrGrCrArCrGrGrArCrUrUrGrGrArCrGrGrCdTdT | 66.1%
27 | sense rGrCrCrUrArArGrCrArArGrArArGrCrUrGrCrGdTdT / antisense rCrGrCrArGrCrUrUrCrUrUrGrCrUrUrArGrGrCdGdC | 85.7%
28 | sense rGrCrGrArGrArUrCrArArArGrGrGrCrUrArGrAdTdT / antisense rUrCrUrArGrCrCrCrUrUrUrGrArUrCrUrCrGrCdTdC | 96.7%
29 | sense rGrCrGrGrCrArGrCrGrGrCrCrGrUrCrGrGrGrGdTdT / antisense rCrCrCrCrGrArCrGrGrCrCrGrCrUrGrCrCrGrCdAdG | 70.5%
30 | sense rGrCrUrGrCrGrCrUrCrGrCrUrGrCrUrCrGrGrGdTdT / antisense rCrCrCrGrArGrCrArGrCrGrArGrCrGrCrArGrCdAdG | 67.1%
31 | sense rGrCrUrGrCrGrGrUrGrGrCrGrCrUrGrUrCrArGdTdT / antisense rCrUrGrArCrArGrCrGrCrCrArCrCrGrCrArGrCdAdC | 80.5%

Row | Substance | normalised inhibition (eCFP-eYFP dual reporter)
32 | sense rGrCrUrGrCrUrGrCrGrCrUrCrGrCrUrGrCrUrCdTdT / antisense rGrArGrCrArGrCrGrArGrCrGrCrArGrCrArGrCdGdT | 78.8%
33 | sense rGrCrUrUrCrArGrUrArArGrCrGrCrUrCrGrUrGdTdT / antisense rCrArCrGrArGrCrGrCrUrUrArCrUrGrArArGrCdAdG | 84.7%
34 | sense rGrGrArArCrGrArCrCrUrGrGrGrCrArGrCrCrGdTdT / antisense rCrGrGrCrUrGrCrCrCrArGrGrUrCrGrUrUrCrCdAdC | 51.5%
35 | sense rGrGrCrArArGrArArGrCrArGrCrGrCrCrUrArAdTdT / antisense rUrUrArGrGrCrGrCrUrGrCrUrUrCrUrUrGrCrCdCdT | 91.3%
36 | sense rGrGrCrArUrGrGrUrGrUrGrCrArArGrCrCrGrUdTdT / antisense rArCrGrGrCrUrUrGrCrArCrArCrCrArUrGrCrCdCdT | 79.1%
37 | sense rGrGrCrGrGrCrCrArGrCrArCrUrArUrCrUrCrCdTdT / antisense rGrGrArGrArUrArGrUrGrCrUrGrGrCrCrGrCrCdGdG | 87.4%
38 | sense rGrGrCrUrUrCrArUrGrGrCrCrArCrCrUrCrGrCdTdT / antisense rGrCrGrArGrGrUrGrGrCrCrArUrGrArArGrCrCdTdG | 64.6%
39 | sense rGrGrGrCrArArGrArArGrCrArGrCrGrCrCrUrAdTdT / antisense rUrArGrGrCrGrCrUrGrCrUrUrCrUrUrGrCrCrCdTdG | 93.3%
40 | sense rGrUrCrCrArArGrUrCrCrGrUrGrCrArCrCrUrCdTdT / antisense rGrArGrGrUrGrCrArCrGrGrArCrUrUrGrGrArCdGdG | 55.7%
41 | sense rGrUrGrCrArArGrCrCrGrUrCrCrArArGrUrCrCdTdT / antisense rGrGrArCrUrUrGrGrArCrGrGrCrUrUrGrCrArCdAdC | 75.4%
42 | sense rGrUrGrGrCrUrGrUrGrGrUrCrGrCrArGrArCrAdTdT / antisense rUrGrUrCrUrGrCrGrArCrCrArCrArGrCrCrArCdAdT | 83.3%
43 | sense rUrArCrGrCrGrUrGrGrArArCrGrArCrCrUrGrGdTdT / antisense rCrCrArGrGrUrCrGrUrUrCrCrArCrGrCrGrUrAdCdA | 51.8%
44 | sense rUrCrArUrCrGrArArCrArCrCrCrArGrArCrCrCdTdT / antisense rGrGrGrUrCrUrGrGrGrUrGrUrUrCrGrArUrGrAdGdG | 67.8%
45 | sense rUrCrCrGrCrCrCrGrGrCrArCrCrCrArGrCrGrAdTdT / antisense rUrCrGrCrUrGrGrGrUrGrCrCrGrGrGrCrGrGrAdTdG | 72%
46 | sense rUrCrGrCrArGrArCrArUrUrCrUrGrCrCrCrCrGdTdT / antisense rCrGrGrGrGrCrArGrArArUrGrUrCrUrGrCrGrAdCdC | 47.6%
47 | sense rUrCrUrGrCrCrCrCrGrUrGrCrUrGrUrArCrGrCdTdT / antisense rGrCrGrUrArCrArGrCrArCrGrGrGrGrCrArGrAdAdT | 61%
48 | sense rUrGrCrUrGrUrArCrGrCrGrUrGrGrArArCrGrAdTdT / antisense rUrCrGrUrUrCrCrArCrGrCrGrUrArCrArGrCrAdCdG | 85.2%
49 | sense rUrGrGrUrCrGrCrArGrArCrArUrUrCrUrGrCrCdTdT / antisense rGrGrCrArGrArArUrGrUrCrUrGrCrGrArCrCrAdCdA | 40.5%
50 | sense rUrGrGrUrGrGrArCrCrUrCrArUrCrGrArArCrAdTdT / antisense rUrGrUrUrCrGrArUrGrArGrGrUrCrCrArCrCrAdGdG | 96.4%
51 | sense rUrGrUrGrGrUrCrGrCrArGrArCrArUrUrCrUrGdTdT / antisense rCrArGrArArUrGrUrCrUrGrCrGrArCrCrArCrAdGdC | 57.5%
52 | sense rUrUrGrGrCrCrCrArGrGrGrCrArArGrArArGrCdTdT / antisense rGrCrUrUrCrUrUrGrCrCrCrUrGrGrGrCrCrArAdGdC | 41.1%

Source: the OligoGym collection
